pIC50: −log10 of the molar value.

T1 sequence (P80457 whole entry): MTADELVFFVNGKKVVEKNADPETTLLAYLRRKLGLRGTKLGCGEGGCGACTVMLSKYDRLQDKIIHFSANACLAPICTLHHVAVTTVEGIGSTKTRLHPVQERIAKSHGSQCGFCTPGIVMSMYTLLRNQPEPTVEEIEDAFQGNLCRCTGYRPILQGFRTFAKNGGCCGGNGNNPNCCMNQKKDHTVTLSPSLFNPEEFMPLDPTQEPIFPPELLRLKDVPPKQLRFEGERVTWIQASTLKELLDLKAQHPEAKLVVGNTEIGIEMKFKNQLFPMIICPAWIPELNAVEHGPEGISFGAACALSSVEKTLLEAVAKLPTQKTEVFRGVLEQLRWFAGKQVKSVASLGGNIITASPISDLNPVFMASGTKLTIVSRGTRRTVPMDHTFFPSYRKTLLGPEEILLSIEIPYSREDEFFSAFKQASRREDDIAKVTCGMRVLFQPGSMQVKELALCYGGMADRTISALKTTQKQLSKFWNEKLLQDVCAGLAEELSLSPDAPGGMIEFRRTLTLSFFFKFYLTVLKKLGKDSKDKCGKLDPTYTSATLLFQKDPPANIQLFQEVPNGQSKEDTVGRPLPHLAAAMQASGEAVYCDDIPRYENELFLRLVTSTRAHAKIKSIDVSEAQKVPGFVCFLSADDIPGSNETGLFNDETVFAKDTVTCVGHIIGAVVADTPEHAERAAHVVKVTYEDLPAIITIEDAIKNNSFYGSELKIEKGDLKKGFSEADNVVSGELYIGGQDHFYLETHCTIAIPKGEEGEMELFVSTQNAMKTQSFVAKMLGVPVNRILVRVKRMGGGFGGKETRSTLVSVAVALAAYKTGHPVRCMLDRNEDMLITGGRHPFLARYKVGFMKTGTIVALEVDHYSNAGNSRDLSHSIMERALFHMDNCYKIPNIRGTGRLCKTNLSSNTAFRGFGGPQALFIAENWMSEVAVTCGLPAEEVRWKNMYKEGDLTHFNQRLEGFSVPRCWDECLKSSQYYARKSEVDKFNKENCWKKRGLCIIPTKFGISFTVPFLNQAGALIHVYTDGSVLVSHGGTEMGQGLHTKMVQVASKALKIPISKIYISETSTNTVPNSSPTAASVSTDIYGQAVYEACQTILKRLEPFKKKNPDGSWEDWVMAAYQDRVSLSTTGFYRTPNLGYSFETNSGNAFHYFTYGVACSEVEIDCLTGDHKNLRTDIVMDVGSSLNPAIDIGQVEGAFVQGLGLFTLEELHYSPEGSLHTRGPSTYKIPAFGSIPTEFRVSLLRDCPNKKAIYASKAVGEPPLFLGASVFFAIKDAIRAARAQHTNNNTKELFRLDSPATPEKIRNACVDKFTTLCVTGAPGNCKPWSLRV

One data set addresses T1, xanthine oxidase (derived from butter milk) (Bos taurus, UniProt P80457).
T1 construct: xanthine oxidase (derived from butter milk, manufactured by Sigma); purchased Sigma; host or cells: buttermilk (natural source)
Description: Xanthine oxidase-inhibitory activity (pterin oxidation, fluorescence). The note with it: xanthine oxidase 0.03 units/ml, pterin 5 μM. Format: biochemical. How it is done: A test compound was dissolved in DMSO (manufactured by Nakarai) so as to be a concentration of 10 mM and then used after the concentration was adjusted to an aimed one at use.
The evaluation of xanthine oxidase-inhibitory activity of the compound of the invention was carried out using a method described in a document (Free Radic. Biol. Med. 6, 607-615, 1992) with partial modification. Namely, xanthine oxidase (derived from butter milk, manufactured by Sigma) was adjusted to 0.03 units/ml using a 50 mM phosphate buffer and was added to a 96-well plate in an amount of 50 μl/well. Each test compound diluted so as to be a final concentration was added thereto in an amount of 2 μl/well, followed by treatment at room temperature for 20 minutes. Pterin (manufactured by Sigma) was added thereto so as to be a final concentration of 5 μM, followed by reaction at room temperature for 10 minutes. Measurement was performed using a microplate reader saphire (manufactured by Tecan) under conditions of excitation at 345 nm and emission at 390 nm (pterin was oxidized by xanthine oxidase into isoxanthopterin, which emitted a light under the conditions).
The concentration of the test compound at which 50% inhibition was observed (IC50 value) was calculated, the emissions of isoxanthopterin under conditions of the presence or absence of xanthine oxidase being 0% inhibition and 100% inhibition, respectively.
By pIC50 is commonly meant the negative decadic logarithm of the IC50, by convention in mol/L. A low value points to a large IC50. `CCCOc1ccc(-c2ccc(C(=O)[O-])s2)cc1C#N.[Na+]` [Example 1, sodium 5-(3-cyano-4-n-propoxyphenyl)thiophene-2-carboxylate] had a negative logarithm of the IC50 (pIC50) of 8.49.

For the compound `CC(C)COc1ccc(-c2ccc(C(=O)O)s2)cc1[N+](=O)[O-]` [Example 3, 5-(3-nitro-4-isobutoxyphenyl)thiophene-2-carboxylic acid], the pIC50 was 8.16. Against the preceding compound, the pIC50 is 0.33 log units lower.

`CC(C)COc1ccc(-c2cc(F)c(C(=O)O)s2)cc1C#N` [Example 4, sodium 5-(3-cyano-4-isobutoxyphenyl)-3-fluorothiophene-2-carboxylate] showed a pIC50 of 8.66. Against the preceding compound, the pIC50 is 0.50 log units higher.

`CC(C)COc1ccc(-c2ccc(-c3nnn[nH]3)s2)cc1[N+](=O)[O-]` [Example 5, 5-[5-(4-isobutoxy-3-nitrophenyl)-2-thienyl]-1H-tetrazole]: the pIC50 was 8.03.

On to `CCCCN(C)c1ccc(-c2ccc(C(=O)O)s2)cc1C#N` [Example 8, sodium 5-{4-[butyl(methyl)amino]-3-cyanophenyl)thiophene-2-carboxylate], for which the pIC50 was 8.39.

As to `CC(C)CSc1ccc(-c2ccc(C(=O)O)s2)cc1C#N` [Example 9, sodium 5-[3-cyano-4-(isobutylthio)phenyl]thiophene-2-carboxylate], the pIC50 was 8.54.

`N#Cc1cc(-c2ccc(C(=O)O)s2)ccc1OCc1cccnc1` [Example 19]: the pIC50 was 8.55.

As to `N#Cc1cc(-c2ccc(C(=O)O)s2)ccc1OCCn1cccc1` [Example 22], the negative logarithm of the IC50 (pIC50) is 8.29.

In the case of `N#CCCCOc1ccc(-c2ccc(C(=O)O)s2)cc1C#N` [Example 23], the pIC50 is 7.89. This pIC50 lies 0.40 log units lower than the previous one.

Compound `N#Cc1cc(-c2ccc(C(=O)O)s2)ccc1OCc1ccccc1` [Example 24] gave a pIC50 of 8.60.

Turning to `N#Cc1cc(-c2ccc(C(=O)O)s2)ccc1N1CCCCC1` [Example 27], the negative-log IC50 (pIC50) was 8.74. The pIC50 values of the last two compounds are within 0.2 log units of each other.

`CC1CCN(c2ccc(-c3ccc(C(=O)O)s3)cc2C#N)CC1` [Example 30] had a negative-log IC50 (pIC50) of 8.70.

Turning to `CC(=O)c1cc(-c2ccc(C(=O)O)s2)ccc1OC1CCCC1` [Example 33], the pIC50 was 8.23.

`N#Cc1cc(-c2ccc(C(=O)O)s2)ccc1Oc1ccccc1` [Example 34] gave a pIC50 of 8.20.

In the case of `N#Cc1cc(-c2cc(F)c(C(=O)O)s2)ccc1OC/C=C/c1ccccc1` [Example 47], the pIC50 was 8.43. Compared with the last compound, the pIC50 is 0.23 log units higher.

In turn, `CC(C)COc1c(F)cc(-c2ccc(C(=O)O)s2)cc1C#N` [Example 54] showed a negative logarithm of the IC50 (pIC50) of 8.82.

The next data set concerns ICR mice. Description: Serum uric acid-lowering action after oral administration. The note with it: after 2 hours from oral administration, 1 mg/kg. Format: in vivo. On the procedure: A test compound was orally administered compulsorily to ICR mice using an oral sonde. After 2 hours, 6 hours, and, depending on the compound, further 24 hours from the administration, blood was collected from an abdominal aorta and then serum was separated in a usual manner. Serum uric acid was measured on an absorptiometer (SPECTRA MAX 190, manufactured by Molecular Device) by an uricase method using a uric acid-measuring kit (Uric Acid C-TestWako: Wako Pure Chemical Industries, Ltd.) and a uric acid-lowering ratio was determined according to the following equation. Uric acid-lowering ratio (%)=(Uric acid level of control animal−Uric acid level of test compound-administered animal)×100/Uric acid level of control animal
Turning to `CCCOc1ccc(-c2ccc(C(=O)[O-])s2)cc1C#N.[Na+]` [Example 1, sodium 5-(3-cyano-4-n-propoxyphenyl)thiophene-2-carboxylate], the uric acid-lowering ratio was found to be 66%.

For another data set, the system named is male Wistar rats. Description: Trinitrobenzenesulfonic acid (TNBS)-induced enteritis-inhibitory action. Format: in vivo, rat. The note with it: 3 mg/kg oral once a day, 21st day. On the procedure: The effectiveness of the compound of the invention on an enteritis model can be also evaluated by a model using trinitrobenzenesulfonic acid (TNBS) as an inducing agent instead of acetic acid (Cell. Mol. Biol, 38, 189-199, 1992). Thus, referring to the method described in the report, the enteritis-suppressing action of the compound of the invention was evaluated.
Namely, TNBS or physiological saline as a normal group was administered into the rectum of male Wistar rats of 200 to 250 g. Thereafter, a test compound or 0.5% methyl cellulose (control group) was orally administered once a day and dissection was performed on each administered group on 21st day. A part of the large intestine 2 to 7 cm from the anus side was cut out and incised. After feces were removed by means of tweezers, the part was washed and a score of morbid conditions was evaluated and tissue weight was measured. The score of morbid conditions and a tissue weight increase-suppressing ratio were calculated as in the evaluation method of the above acetic acid-induced enteritis-suppressing action.
As for `CCCOc1ccc(-c2ccc(C(=O)[O-])s2)cc1C#N.[Na+]` [Example 1, sodium 5-(3-cyano-4-n-propoxyphenyl)thiophene-2-carboxylate], the “suppression of intestinal tissue weight increase” value is reported as at least 70%.

For a further data set, the system named is pyrimidine synthetic pathway. Description: Pyrimidine synthetic pathway-inhibitory action (influence on BUN level). Type of data set: in vivo. The note with it: oral administration of 30 mg/kg. An excerpt:
Allopurinol which is an existing hyperuricemia therapeutic drug is known to cause renal dysfunction as an undesirable action. As mentioned previously, since allopurinol has a nucleic acid-like structure, as one cause thereof, it is presumed that it inhibits pyrimidine synthetic pathway. […] Thus, according to the method described in the document, the influence of the compounds of the invention on a BUN level was confirmed.
For `CCCOc1ccc(-c2ccc(C(=O)[O-])s2)cc1C#N.[Na+]` [Example 1, sodium 5-(3-cyano-4-n-propoxyphenyl)thiophene-2-carboxylate], the “inhibitory action on pyrimidine synthetic pathway (influence on BUN level)” value is on record as “no inhibitory action”.

(Values after US7612108B2, “2-phenylthiophene derivative” (Astellas Pharma Inc., priority 2004, dated 2009).)
